From the supplement of paper PMC10307832 come the findings set out here.

Holding throughout (experiment): relative viability (nuclei count vs DMSO), 5 days (fraction); higher = more cells survive
Compound in experiment [1]: CCn1c(-c2nonc2N)nc2c(C#CC(C)(C)O)ncc(OC[C@H]3CCCNC3)c21 + CS(=O)(=O)N1CCN(Cc2cc3nc(-c4cccc5[nH]ncc45)nc(N4CCOCC4)c3s2)CC1 [Pictilisib] (partner 1 µM)
The method, boiled down: (§1)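 Relative viability divides the nuclei count in treated wells by that in vehicle wells. Lung cancer cell lines were seeded in 1536-well plates, dosed by pin tool the next day, and fixed and stained after 5 days in one step with final 0.05% Triton X-100, 1% formaldehyde and 1 ug/ml Hoechst. Dosing was a single drug or a fixed anchor-drug dose plus five library-drug doses (not always all listed) in √10 steps, and values are medians of duplicate plates imaged at 4×.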

Compound in experiment [2]: CCn1c(-c2nonc2N)nc2c(C#CC(C)(C)O)ncc(OC[C@H]3CCCNC3)c21 + O=C(CCCCCCC(=O)Nc1ccccc1)NO [Vorinostat] (partner 1 µM)
Put shortly: as §1

Compound in experiment [3]: CCn1c(-c2nonc2N)nc2c(C#CC(C)(C)O)ncc(OC[C@H]3CCCNC3)c21 + CC(=O)Nc1cccc(-n2c(=O)n(C3CC3)c(=O)c3c(Nc4ccc(I)cc4F)n(C)c(=O)c(C)c32)c1 [Trametinib] (partner 0.02 µM)
Put shortly: as §1

Compound in experiment [4]: CCOC1=CC=CC=C1N=NC2=C(NN(C2=O)C3=NC(=CS3)C4=CC=CC=C4)C [BAM7] + N=C(N)NC(=N)NCCc1ccccc1 [Phenformin] (partner 250 µM)
The method, boiled down: as §1

In the case of NCI-H1755, the relative viability in experiment [1] (first compound 0.01 µM) turned out to be 0.426; in experiment [1] (first compound 0.03162 µM), 0.445; in experiment [1] (first compound 0.1 µM), 0.41; in experiment [1] (first compound 0.3162 µM) it was 0.408; in experiment [1] (first compound 1 µM), 0.382; in experiment [2] (first compound 0.01 µM), 0.725. In addition, the relative viability stood at 0.66 in experiment [2] (first compound 0.03162 µM); 0.637 in experiment [2] (first compound 0.1 µM); 0.762 in experiment [2] (first compound 0.3162 µM); 0.841 in experiment [2] (first compound 1 µM); 0.855 in experiment [3] (first compound 0.01 µM); 0.808 in experiment [3] (first compound 0.03162 µM). Further, the relative viability came out at 0.801 in experiment [3] (first compound 0.1 µM); 0.769 in experiment [3] (first compound 0.3162 µM); 0.801 in experiment [3] (first compound 1 µM); 0.657 in experiment [4] (first compound 0.5 µM); 0.657 in experiment [4] (first compound 5 µM); 0.611 in experiment [4] (first compound 15.81 µM). Moreover, in experiment [4] (first compound 50 µM), the relative viability is 0.645.

With NCI-H1793, the relative viability amounted to 0.282 in experiment [1] (first compound 0.01 µM); 0.322 in experiment [1] (first compound 0.03162 µM); 0.378 in experiment [1] (first compound 0.1 µM); 0.346 in experiment [1] (first compound 0.3162 µM); 0.317 in experiment [1] (first compound 1 µM); 0.652 in experiment [2] (first compound 0.01 µM). In addition, the relative viability in experiment [2] (first compound 0.03162 µM) turned out to be 0.692; in experiment [2] (first compound 0.3162 µM), 0.605; in experiment [2] (first compound 1 µM), 0.704; in experiment [3] (first compound 0.01 µM), 0.388; in experiment [3] (first compound 0.03162 µM), 0.393; in experiment [3] (first compound 0.3162 µM), 0.401. Moreover, the relative viability in experiment [3] (first compound 1 µM) came to 0.436; in experiment [4] (first compound 0.5 µM) it was 0.342; in experiment [4] (first compound 5 µM) it was 0.338; in experiment [4] (first compound 15.81 µM) it was 0.348; in experiment [4] (first compound 50 µM) it was 0.317.

As to NCI-H1915, the relative viability in experiment [1] (first compound 0.01 µM) was found to be 0.977; in experiment [1] (first compound 0.03162 µM), 0.941; in experiment [1] (first compound 0.1 µM), 0.957; in experiment [1] (first compound 0.3162 µM), 0.871; in experiment [1] (first compound 1 µM), 0.979; in experiment [2] (first compound 0.01 µM), 0.57. Besides, the relative viability was found to be 0.526 in experiment [2] (first compound 0.03162 µM); 0.474 in experiment [2] (first compound 0.1 µM); 0.513 in experiment [2] (first compound 0.3162 µM); 0.5 in experiment [2] (first compound 1 µM); 0.293 in experiment [3] (first compound 0.01 µM); 0.3 in experiment [3] (first compound 0.03162 µM). Moreover, the relative viability in experiment [3] (first compound 0.1 µM) was 0.299; in experiment [3] (first compound 0.3162 µM), 0.281; in experiment [3] (first compound 1 µM), 0.308; in experiment [4] (first compound 0.5 µM), 0.377; in experiment [4] (first compound 5 µM), 0.374; in experiment [4] (first compound 15.81 µM) it was 0.405. In addition, the relative viability in experiment [4] (first compound 50 µM) turned out to be 0.382.

Regarding NCI-H1944, the relative viability came to 0.357 in experiment [1] (first compound 0.01 µM); 0.276 in experiment [1] (first compound 0.03162 µM); 0.284 in experiment [1] (first compound 0.1 µM); 0.35 in experiment [1] (first compound 0.3162 µM); 0.334 in experiment [1] (first compound 1 µM); 0.645 in experiment [2] (first compound 0.01 µM). In addition, the relative viability in experiment [2] (first compound 0.03162 µM) worked out at 0.477; in experiment [2] (first compound 0.1 µM), 0.568; in experiment [2] (first compound 0.3162 µM), 0.514; in experiment [2] (first compound 1 µM), 0.585; in experiment [3] (first compound 0.01 µM), 0.452; in experiment [3] (first compound 0.03162 µM) it was 0.449. The relative viability stood at 0.393 in experiment [3] (first compound 0.1 µM); 0.355 in experiment [3] (first compound 0.3162 µM); 0.401 in experiment [3] (first compound 1 µM); 0.223 in experiment [4] (first compound 0.5 µM); 0.199 in experiment [4] (first compound 5 µM); 0.205 in experiment [4] (first compound 15.81 µM). The relative viability in experiment [4] (first compound 50 µM) is 0.22.

For the cell line NCI-H1975, the relative viability in experiment [1] (first compound 0.01 µM) came to 0.335; in experiment [1] (first compound 0.03162 µM), 0.255; in experiment [1] (first compound 0.1 µM) it was 0.314; in experiment [1] (first compound 0.3162 µM) it was 0.235; in experiment [1] (first compound 1 µM), 0.261; in experiment [2] (first compound 0.01 µM) it was 0.705. In addition, the relative viability worked out at 0.72 in experiment [2] (first compound 0.03162 µM); 0.717 in experiment [2] (first compound 0.1 µM); 0.631 in experiment [2] (first compound 0.3162 µM); 0.684 in experiment [2] (first compound 1 µM); 0.359 in experiment [3] (first compound 0.01 µM); 0.393 in experiment [3] (first compound 0.03162 µM). Besides, the relative viability in experiment [3] (first compound 0.1 µM) came to 0.452; in experiment [3] (first compound 0.3162 µM) it was 0.281; in experiment [3] (first compound 1 µM) it was 0.21; in experiment [4] (first compound 0.5 µM), 0.401; in experiment [4] (first compound 5 µM), 0.425; in experiment [4] (first compound 15.81 µM), 0.391. Moreover, in experiment [4] (first compound 50 µM), the relative viability came to 0.427.

Regarding NCI-H1993, the relative viability came out at 1.03 in experiment [1] (first compound 0.01 µM); 0.735 in experiment [1] (first compound 0.03162 µM); 0.887 in experiment [1] (first compound 0.1 µM); 0.866 in experiment [1] (first compound 0.3162 µM); 0.887 in experiment [1] (first compound 1 µM); 1.01 in experiment [2] (first compound 0.01 µM). Moreover, the relative viability in experiment [2] (first compound 0.03162 µM) was determined as 0.805; in experiment [2] (first compound 0.1 µM), 0.825; in experiment [2] (first compound 0.3162 µM) it was 0.776; in experiment [2] (first compound 1 µM) it was 0.543; in experiment [3] (first compound 0.01 µM), 0.688; in experiment [3] (first compound 0.03162 µM) it was 0.493. The relative viability came to 0.555 in experiment [3] (first compound 0.1 µM); 0.464 in experiment [3] (first compound 0.3162 µM); 0.507 in experiment [3] (first compound 1 µM); 0.575 in experiment [4] (first compound 0.5 µM); 0.617 in experiment [4] (first compound 5 µM); 0.533 in experiment [4] (first compound 15.81 µM). The relative viability in experiment [4] (first compound 50 µM) turned out to be 0.543.

In the case of NCI-H2009, the relative viability in experiment [1] (first compound 0.01 µM) is 0.89; in experiment [1] (first compound 0.03162 µM), 0.855; in experiment [1] (first compound 0.1 µM), 0.745; in experiment [1] (first compound 0.3162 µM) it was 0.798; in experiment [1] (first compound 1 µM), 0.752; in experiment [2] (first compound 0.01 µM), 0.726. The relative viability was 0.708 in experiment [2] (first compound 0.03162 µM); 0.788 in experiment [2] (first compound 0.1 µM); 0.706 in experiment [2] (first compound 0.3162 µM); 0.821 in experiment [2] (first compound 1 µM); 0.268 in experiment [3] (first compound 0.01 µM); 0.274 in experiment [3] (first compound 0.03162 µM). In addition, the relative viability in experiment [3] (first compound 0.1 µM) stood at 0.245; in experiment [3] (first compound 0.3162 µM), 0.301; in experiment [3] (first compound 1 µM), 0.259; in experiment [4] (first compound 0.5 µM), 0.497; in experiment [4] (first compound 5 µM), 0.542; in experiment [4] (first compound 15.81 µM), 0.426. Moreover, the relative viability in experiment [4] (first compound 50 µM) turned out to be 0.465.

NCI-H2023: the relative viability stood at 0.214 in experiment [1] (first compound 0.01 µM); 0.269 in experiment [1] (first compound 0.03162 µM); 0.207 in experiment [1] (first compound 0.1 µM); 0.196 in experiment [1] (first compound 0.3162 µM); 0.236 in experiment [1] (first compound 1 µM); 0.615 in experiment [2] (first compound 0.01 µM). For the same cell line, the relative viability in experiment [2] (first compound 0.03162 µM) turned out to be 0.642; in experiment [2] (first compound 0.1 µM), 0.58; in experiment [2] (first compound 0.3162 µM), 0.394; in experiment [2] (first compound 1 µM), 0.488; in experiment [3] (first compound 0.01 µM), 0.639; in experiment [3] (first compound 0.03162 µM), 0.55. Further, the relative viability came out at 0.422 in experiment [3] (first compound 0.1 µM); 0.432 in experiment [3] (first compound 0.3162 µM); 0.288 in experiment [3] (first compound 1 µM); 0.446 in experiment [4] (first compound 0.5 µM); 0.393 in experiment [4] (first compound 5 µM); 0.37 in experiment [4] (first compound 15.81 µM). Further, the relative viability in experiment [4] (first compound 50 µM) came to 0.411.
